Measurements published in US12433830B2, “Anti-aging compositions and methods of use thereof” (S.I.S. SHULOV INNOVATIVE SCIENCE LTD., priority 2019, dated 2025).
Where a SMILES comes first, the peptide text is derived from it. [ ]: non-standard residue; d: D form. The star is where a group is joined. pGlu = O=C1CC[C@@H](C(=O)O)N1; Octanoyl = CCCCCCCC(=O)*

Assays:
[1] = rat, chemical corneal injury; cited from earlier work
[2] = test system: epidermal cells; experiment: Formation of reactive oxygen species (ROS) in epidermal cells under stress conditions; assay type: cell-based; conditions: stress conditions (70 mM NaCl)
[3] = test system: epidermal cells; experiment: Viability of epidermal cells under stress conditions; assay type: cell-based; conditions: stress conditions (70 mM NaCl)
[4] = test system: Mattek's EpiDerm™ X (EPI-606-X) reconstructed human epidermis tissue; experiment: Skin metabolism, full scan HRMS search for metabolites in permeation samples; assay type: in vitro ADME; conditions: t=4, 8, 20, 22, 24 h vs time zero; positive and negative ESI
Experimental: The skin metabolism of ZEP3 and ZEP3Na was also investigated. Full scan HRMS chromatograms were acquired for the samples, in both positive and negative ESI mode, in order to identify possible metabolites of the target analytes. Differential analysis between the samples through the experiment (t=4, 8, 20, 22, and 24 h) and the sample at time zero was performed. Evaluation of the fragmentation profile through MS/MS experiments was also performed in order to provide additional information.

| metabolites identified [4] | Molecule | effect on ocular pain [1] | formation of reactive oxygen species (ROS) [2] | viability of epidermal cells [3] |
| --- | --- | --- | --- | --- |
| – | pGlu-Asn-Trp-Thr-OH ([pGlu]NWT-OH; SMILES C[C@@H](O)[C@H](NC(=O)[C@H](Cc1c[nH]c2ccccc12)NC(=O)[C@H](CC(N)=O)NC(=O)[C@@H]1CCC(=O)N1)C(=O)O) [ZEP4] | analgesic effect | reduced the formation of reactive oxygen species (ROS) | increased viability of epidermal cells |
| No metabolites | CCCCCCCC(=O)NCCCC[C@H](NC(=O)[C@H](Cc1c[nH]c2ccccc12)NC(=O)[C@H](CC(N)=O)NC(=O)[C@@H]1CCC(=O)N1)C(=O)O [ZEP3, pGlu-Asn-Trp-Lys(Octanoyl)-OH] ([pGlu]NWK(Octanoyl)-OH) | – | reduced the formation of reactive oxygen species (ROS) | increased viability of epidermal cells |
